Where a name gives a salt, the structure may show the parent alone. Read-outs that look alike come from different tables or passages of the source.
What was measured:
5-HT1A receptor = molecular target: T1, 5-HT1A receptor (Rattus norvegicus, UniProt P19327); test: biochemical; type: binding; settings: rat cerebral cortex, [^3 H]8-OH-DPAT 0.2 nM, 23° C., 30 minutes, mean of 3 to 5 experiments; for Ki: read-out: pKi (Affinity for the 5-HT1A receptor) (converted)
T1 sequence (P19327 1-422): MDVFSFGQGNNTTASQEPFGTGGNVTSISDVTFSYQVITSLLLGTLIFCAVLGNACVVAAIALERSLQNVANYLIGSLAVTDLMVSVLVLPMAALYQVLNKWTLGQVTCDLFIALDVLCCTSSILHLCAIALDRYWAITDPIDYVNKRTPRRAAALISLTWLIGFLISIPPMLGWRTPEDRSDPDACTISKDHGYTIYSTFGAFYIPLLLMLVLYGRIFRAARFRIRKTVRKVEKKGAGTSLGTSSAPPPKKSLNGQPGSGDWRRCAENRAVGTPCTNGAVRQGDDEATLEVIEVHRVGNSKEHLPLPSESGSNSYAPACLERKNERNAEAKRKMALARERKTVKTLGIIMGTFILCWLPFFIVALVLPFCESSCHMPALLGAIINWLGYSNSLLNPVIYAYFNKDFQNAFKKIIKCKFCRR

[1] = molecular target: T2, 5-HT1A type serotoninergic receptors (Rattus norvegicus, UniProt P19327); test: 5-HT syndrome in rats (FBP, LLR, FPT); type: in vivo; settings: ip, male Sprague Dawley rats
T2 construct: carried out in male rats (Sprague Dawley); from tissue; host or cells: living male Sprague Dawley rats (whole animal)
T2 sequence (P19327 1-422): T1 sequence (P19327 1-422)
Procedure: The central activity of the compounds of the invention was evaluated for their capacity to cause the 5-HT syndrome, which is characterized by reciprocal fore-paw treading (FPT), lower-lip retraction (LLR) and flat body posture (FBP).
The experiments for the evaluation of the 5-HT syndrome are carried out in male rats (Sprague Dawley) according to the method described by F.C COLPAERT et al (Drug Dev. Res., 26, 21-48; 1992).

[2] = FBP, read-out: ED50 flat body posture (FBP), 5-HT syndrome
[3] = FPT, read-out: ED50 reciprocal fore-paw treading (FPT), 5-HT syndrome
[4] = LLR, read-out: ED50 lower-lip retraction (LLR), 5-HT syndrome

Compound | Ki (5-HT1A receptor) [nM] | also measured
Cn1c(=O)cnn(CCCCN2CCN(c3ncccn3)CC2)c1=O [Compound 9, 4-methyl-2-(4-(4-pyrimidinyl-2)piperazino)butyl-3,5-dioxo-(2H,4H)-1,2,4-triazine] | 4.57 | ED50 [1, 2]: 0.08 mg/kg; ED50 [1, 3]: 0.31 mg/kg; ED50 [1, 4]: 0.08 mg/kg
Cc1cc(C)nc(N2CCN(CCCCn3ncc(=O)n(C)c3=O)CC2)n1 [Compound 26, 4-methyl-2-(4-(4-(4,6-dimethyl-2-pyrimidinyl)piperazino)butyl)-3,5-dioxo-(2H,4H)-1,2,4-triazine] | 0.646 | –
4-methyl-2-(4-(2,3-dihydro-1,4-dioxino-[2,3-b]-pyridin-2-ylmethylamino)butyl)-3,5-dioxo-(2H,4H)-1,2,4-triazine fumarate [Compound 16] | – | pKi (Affinity for the 5-HT1A receptor) (5-HT1A receptor): 9.36
Cn1c(=O)cnn(CCCCN2CCN(c3cccc(Cl)c3Cl)CC2)c1=O [Compound 22, 4-methyl-2-(4-(4-(2,3-dichloro-phenyl)piperazino)butyl)-3,5-dioxo-(2H,4H)-1,2,4-triazine] | 0.316 | –
Cn1c(=O)cnn(CCCCN2CCN(c3cc(Cl)cc(Cl)c3)CC2)c1=O [Compound 23, 4-methyl-2-(4-(4-(3,5-dichloro-phenyl)piperazino)butyl)-3,5-dioxo-(2H,4H)-1,2,4-triazine] | 0.912 | –
Cn1c(=O)cnn(CCCCN2CCN(c3ncccn3)CC2)c1=O [Compound 30, 4-methyl-2-(4-(4-(2-pyrimidinyl)piperazino)butyl)-3,5-dioxo-(2H,4H)-1,2,4-triazine fumarate] | 3.31 | –
CN(CCCCn1ncc(=O)n(C)c1=O)CC1COc2ccccc2O1 (stereo not drawn) [Compound 15, 4-methyl-2-(4-(N-methyl, 1,4-benzodioxan-2-ylmethylamino)butyl)-3,5-dioxo-(2H,4H)-1,2,4-triazine fumarate] | 2.82 | –
O=C1CC2(CCCC2)CC(=O)N1CCCCN1CCN(c2ncccn2)CC1 [Buspirone, reference compound] | – | ED50 [1, 3]: > 40 mg/kg
Cn1c(=O)cnn(CCCCN2CCN(c3ccc(Cl)c(Cl)c3)CC2)c1=O [Compound 21, 4-methyl-2-(4-(4-(3,4-dichloro-phenyl)piperazino)butyl)-3,5-dioxo-(2H,4H)-1,2,4-triazine] | 2.63 | –
Cn1c(=O)cnn(CCCCN2CCN(c3nccc(Cl)n3)CC2)c1=O [Compound 24] | 0.794 | –
4-methyl-2-(4-(4-(4,6-dimethyl-2-pyrimidinyl)piperazino)butyl)-3,5-dioxo-(2H,4H)-1,2,4-triazine [Compound 27] | – | pKi (Affinity for the 5-HT1A receptor) (5-HT1A receptor): 9.23
O=c1cnn(CCCCN2CCN(c3cccc(C(F)(F)F)c3)CC2)c(=O)[nH]1 [Compound 1, 2-[4-(4-(3-trifluoromethylphenyl)piperazino)butyl]-3,5-dioxo-(2H,4H)-1,2,4-triazine hydrochloride] | 0.55 | –
Cl.Cn1c(=O)cnn(CCCCN2CCN(c3cccc(C(F)(F)F)c3)CC2)c1=O [Compound 3, 4-methyl-2-(4-(4-(3-trifluoromethylphenyl)piperazino)butyl)-3,5-dioxo-(2H,4H)-1,2,4-triazine hydrochloride] | 0.24 | ED50 [1, 2]: 0.31 mg/kg; ED50 [1, 3]: 0.31 mg/kg; ED50 [1, 4]: 0.08 mg/kg

Further lines, with some results ahead:

Ki (5-HT1A receptor) [nM] | Compound | also measured
2.63 | Cc1nn(CCCCN2CCN(c3cccc(C(F)(F)F)c3)CC2)c(=O)n(C)c1=O [Compound 13, 4,6-dimethyl-2-(4-(4-(3-trifluoromethylphenyl)piperazino)butyl-3,5-dioxo-(2H,4H)-1,2,4-triazine hydrochloride] | –
0.0324 | COc1ccc2cccc(N3CCN(CCCCn4ncc(=O)n(C)c4=O)CC3)c2c1 [Compound 10, 4-methyl-2-(4-(4-(7-methoxynaphthalene-1-yl)piperazino)butyl-3,5-dioxo-(2H,4H)-1,2,4-triazine fumarate] | ED50 [1, 2]: 0.02 mg/kg; ED50 [1, 3]: 0.02 mg/kg; ED50 [1, 4]: 0.005 mg/kg
0.269 | Cn1c(=O)cnn(CCCCNCC2COc3ccccc3O2)c1=O (stereo not drawn) [Compound 14, 4-methyl-2-(4-(1,4-benzodioxane-2-ylmethylamino)butyl)-3,5-dioxo-(2H,4H)-1,2,4-triazine] | –
0.269 | Cn1c(=O)cnn(CCCCN2CCN(c3cccc(Cl)c3)CC2)c1=O [Compound 4, 4-methyl-2-(4-(4-(3-chlorophenyl)piperazino)butyl)-3,5-dioxo-(2H,4H)-1,2,4-triazine] | –
6.46 | Cc1nn(CCCCN2CCN(c3cccc(C(F)(F)F)c3)CC2)c(=O)[nH]c1=O [Compound 12, 6-methyl-2-(4-(4-(3-trifluoromethylphenyl)piperazino)butyl)-3,5-dioxo-(2H,4H)-1,2,4-triazine] | –
0.851 | COc1ccnc(N2CCN(CCCCn3ncc(=O)n(C)c3=O)CC2)n1 [Compound 28, 4-methyl-2-(4-(4-(4-methoxy-2-pyrimidinyl)piperazino)butyl)-3,5-dioxo-(2H,4H)-1,2,4-triazine] | –
0.132 | COc1ccccc1N1CCN(CCCCn2ncc(=O)n(C)c2=O)CC1 [Compound 11] | –
0.724 | Cc1ccnc(N2CCN(CCCCn3ncc(=O)n(C)c3=O)CC2)n1 [Compound 25] | –
